This is an account of results in patent US9718812B2, “Substituted thiazole or oxazole P2X7 receptor antagonists” (Axxam S.P.A., priority 2014, dated 2017).

Usually IC50 stands for the concentration that inhibits the measured activity by half.

Molecules are shown by their SMILES.

The target of the assay is P2X7 receptor (hP2X7) (Homo sapiens (Human), UniProt Q99572). Put plainly: Screen Quest Fluo-8 No Wash Calcium Assay (Bz-ATP-induced Ca2+ influx, FLIPR TETRA). Format: cell-based. Conditions: HEK-293 cells stably transfected with P2X7 receptor, Fluo-8 calcium, Low Divalent Cation Assay Buffer. Here is the method: Extracellular binding of Bz-ATP to P2X7 receptor opens the channel and allows Ca2+ influx into the cells. This Ca2+ entry was measured in HEK-293 cells stably transfected with P2X7 receptor using Screen Quest™ Fluo-8 No Wash Calcium Assay Kit (AAt Bioquest®, cat. 36316). Once inside the cell, the lipophilic blocking groups of Fluo-8 are cleaved by non-specific cell esterases, resulting in a negatively-charged fluorescent dye that stays inside cells. Its fluorescence increases upon binding to calcium. When HEK-293/P2X7 cells are stimulated with Bz-ATP, Ca2+ enters the cells and the fluorescence of Fluo-8 NW increases. The dye has an absorption spectrum compatible with excitation at 488 nm by argon laser sources and its emission wavelength is in the range of 515-575 nm.
Sequence of P2X7 receptor (hP2X7) (Q99572 whole entry): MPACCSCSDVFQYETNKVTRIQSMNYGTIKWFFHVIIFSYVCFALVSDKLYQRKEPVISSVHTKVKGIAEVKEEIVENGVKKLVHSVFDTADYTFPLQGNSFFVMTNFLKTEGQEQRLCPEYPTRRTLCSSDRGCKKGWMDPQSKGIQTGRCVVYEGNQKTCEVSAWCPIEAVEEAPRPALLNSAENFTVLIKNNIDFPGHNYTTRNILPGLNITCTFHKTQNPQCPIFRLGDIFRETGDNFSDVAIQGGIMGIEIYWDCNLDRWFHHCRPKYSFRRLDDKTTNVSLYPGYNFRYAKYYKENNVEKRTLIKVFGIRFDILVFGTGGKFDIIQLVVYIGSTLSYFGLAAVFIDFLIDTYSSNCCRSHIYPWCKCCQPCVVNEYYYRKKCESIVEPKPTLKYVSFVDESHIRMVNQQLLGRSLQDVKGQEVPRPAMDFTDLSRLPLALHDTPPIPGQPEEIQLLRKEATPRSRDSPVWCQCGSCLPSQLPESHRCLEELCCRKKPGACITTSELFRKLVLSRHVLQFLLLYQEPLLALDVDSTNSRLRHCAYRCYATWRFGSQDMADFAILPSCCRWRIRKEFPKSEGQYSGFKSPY
HEK-293 cells stably transfected with P2X7 receptor were seeded overnight in growth medium at 10,000 to 20,000 cells/well in 384-well plate. 24 hours later, the medium was removed and the cells were pre-loaded at RT for 1 hour with 20 μL/w of Fluo-8 NW. Then 10 μL/w of test compounds and reference antagonist A438079 at 3×-concentration were injected with the […] and the kinetic response over a period of five minutes was monitored.
For `COc1ccc(-c2ncc(F)cn2)cc1C(=O)NCC(c1scnc1C)N1CCC(F)(F)CC1` (centres unmarked) [Compound 71, N-[2-(4,4-difluoropiperidin-1-yl)-2-(4-methyl-1,3-thiazol-5-yl)ethyl]-5-(5-fluoropyrimidin-2-yl)-2-methoxybenzamide], the IC50 stood at 355 nM.

Consider `Cc1ncsc1C(CNC(=O)c1c(F)cccc1Cl)N1CCOC(c2cnn(C)c2)C1` (centres unmarked) [Compound 92, 2-chloro-6-fluoro-N-[2-(4-methyl-1,3-thiazol-5-yl)-2-[2-(1-methyl-1H-pyrazol-4-yl)morpholin-4-yl]ethyl]benzamide], for which the IC50 turned out to be 171 nM. Then `O=C(NCC(c1cnc(C(F)(F)F)s1)N1CCC(F)(F)CC1)c1cc(-c2ncc(F)cn2)ccc1Cl` (centres unmarked) [Compound 82], with 737 nM; and `Cc1ncsc1C(CNC(=O)c1cc(-c2ncc(F)cn2)ccc1Cl)N1CCC(F)(F)CC1C` (centres unmarked) [Compound 103, 2-chloro-N-[2-(4,4-difluoro-2-methylpiperidin-1-yl)-2-(4-methyl-1,3-thiazol-5-yl)ethyl]-5-(5-fluoropyrimidin-2-yl)benzamide], with 186 nM; and `Cc1ncsc1C(CNC(=O)c1cc(-c2ncc(F)cn2)ccc1F)N1CCOC(c2cnn(C)c2)C1` (centres unmarked) [Compound 98], with 142 nM.

`CC(C)(C)c1ncc(C(CNC(=O)c2cc(-c3ncc(F)cn3)ccc2Cl)N2CCC(F)(F)CC2)s1` (centres unmarked) [Compound 122, N-[2-(2-tert-butyl-1,3-thiazol-5-yl)-2-(4,4-difluoropiperidin-1-yl)ethyl]-2-chloro-5-(5-fluoropyrimidin-2-yl)benzamide]: the IC50 came to 1060 nM.

On to `Cc1ncsc1C(CNC(=O)c1c(F)cccc1Cl)N1CCC(F)(F)CC1C` (centres unmarked) [Compound 104, 2-chloro-N-[2-(4,4-difluoro-2-methylpiperidin-1-yl)-2-(4-methyl-1,3-thiazol-5-yl)ethyl]-6-fluorobenzamide], for which the IC50 stood at 1870 nM. Take `O=C(NCC(c1cnc(C2CC2)s1)N1CCC(F)(F)CC1)c1cc(-c2ncc(F)cn2)ccc1F` (centres unmarked) [Compound 86, N-[2-(2-cyclopropyl-1,3-thiazol-5-yl)-2-(4,4-difluoropiperidin-1-yl)ethyl]-2-fluoro-5-(5-fluoropyrimidin-2-yl)benzamide]: the IC50 came to 495 nM. Regarding `O=C(NCC(c1cnc(C2CCC(F)(F)CC2)s1)N1CCC(F)(F)CC1)c1cc(-c2ncc(F)cn2)ccc1Cl` (centres unmarked) [Compound 126], the IC50 stood at 1430 nM.

Regarding `CC(C)(C)c1ncc(C(CNC(=O)c2cccc3ncccc23)N2CCC(F)(F)CC2)s1` (centres unmarked) [Compound 124, N-[2-(2-tert-butyl-1,3-thiazol-5-yl)-2-(4,4-difluoropiperidin-1-yl)ethyl]quinoline-5-carboxamide], the 50% inhibitory concentration (IC50) was found to be 3950 nM. As to `O=C(NCC(c1cnc(C2CCC(F)(F)CC2)s1)N1CCOCC1)c1cc(-c2ncc(F)cn2)ccc1Cl` (centres unmarked) [Compound 125, 2-chloro-N-{2-[2-(4,4-difluorocyclohexyl)-1,3-thiazol-5-yl]-2-(morpholin-4-yl)ethyl}-5-(5-fluoropyrimidin-2-yl)benzamide], the IC50 was found to be 336 nM.

For `Cc1ncsc1C(CNC(=O)c1c(F)cccc1Cl)N1CCOC(c2ccccc2C(F)(F)F)C1` (centres unmarked) [Compound 90, 2-chloro-6-fluoro-N-[2-(4-methyl-1,3-thiazol-5-yl)-2-{2-[2-(trifluoromethyl)phenyl]morpholin-4-yl}ethyl]benzamide], the IC50 is 412 nM.

For the compound `Cc1ncsc1C(CNC(=O)c1cc(-c2ncc(F)cn2)ccc1F)N1CCOC2(CCC2)C1` (centres unmarked) [Compound 94, 2-fluoro-5-(5-fluoropyrimidin-2-yl)-N-[2-(4-methyl-1,3-thiazol-5-yl)-2-{5-oxa-8-azaspiro[3.5]nonan-8-yl}ethyl]benzamide], the IC50 was 321 nM. As to `O=C(NCC(c1scnc1C1CC1)N1CCC(F)(F)CC1)c1cc(-c2ncc(F)cn2)ccc1Cl` (centres unmarked) [Compound 119], the IC50 came out at 319 nM. With `Cc1ncsc1C(CNC(=O)c1c(F)cccc1Cl)N1CCOC2(CCC2)C1` (centres unmarked) [Compound 96, 2-chloro-6-fluoro-N-[2-(4-methyl-1,3-thiazol-5-yl)-2-{5-oxa-8-azaspiro[3.5]nonan-8-yl}ethyl]benzamide], the IC50 amounted to 989 nM. Then `Cc1ncsc1C(CNC(=O)c1cc2c(cc1F)NC(=O)CC2)N1CCC(F)(F)CC1` (centres unmarked) [Compound 120, N-[2-(4,4-difluoropiperidin-1-yl)-2-(4-methyl-1,3-thiazol-5-yl)ethyl]-7-fluoro-2-oxo-1,2,3,4-tetrahydroquinoline-6-], with 6910 nM; and `O=C(NCC(c1scnc1C1CC1)N1CCC(F)(F)CC1)c1c(F)cccc1Cl` (centres unmarked) [Compound 123, 2-chloro-N-[2-(4-cyclopropyl-1,3-thiazol-5-yl)-2-(4,4-difluoropiperidin-1-yl)ethyl]-6-fluorobenzamide], with 279 nM; and `CC(C)(C)c1ncc(C(CNC(=O)c2c(F)cccc2Cl)N2CCC(F)(F)CC2)s1` (centres unmarked) [Compound 118, N-[2-(2-tert-butyl-1,3-thiazol-5-yl)-2-(4,4-difluoropiperidin-1-yl)ethyl]-2-chloro-6-fluoro-benzamide], with 243 nM. For `Cc1cccc(-c2ccc(Cl)c(C(=O)NCC(c3cnc(C)s3)N3CCC(F)(F)CC3)c2)n1` (centres unmarked) [Compound 79, 2-chloro-N-[2-(4,4-difluoropiperidin-1-yl)-2-(2-methyl-1,3-thiazol-5-yl)ethyl]-5-(6-methylpyridin-2-yl)benzamide] the value was 206 nM; for `Cc1ncsc1C(CNC(=O)c1cc(-c2ncc(F)cn2)ccc1Cl)N1CCOC(c2cnn(C)c2)C1` (centres unmarked) [Compound 97], 139 nM. As for `Cc1ncsc1C(CNC(=O)c1ccc(N2CCCS2(=O)=O)cc1Cl)N1CCC(F)(F)CC1` (centres unmarked) [Compound 114], the IC50 turned out to be 367 nM. In the case of `O=C(NCC(c1scnc1C1CC1)N1CCC(F)(F)CC1)c1cccc2ncccc12` (centres unmarked) [Compound 121, N-[2-(4-cyclopropyl-1,3-thiazol-5-yl)-2-(4,4-difluoropiperidin-1-yl)ethyl]quinoline-5-carboxamide], the IC50 was determined as 531 nM.

For `Cc1ncc(C(CNC(=O)c2cc(-c3cnccn3)ccc2Cl)N2CCC(F)(F)CC2)s1` (centres unmarked) [Compound 78, 2-chloro-N-[2-(4,4-difluoropiperidin-1-yl)-2-(2-methyl-1,3-thiazol-5-yl)ethyl]-5-(pyrazin-2-yl)benzamide], the IC50 is 133 nM.

Consider `Cc1ncc(C(CNC(=O)c2cc(-c3ncc(F)cn3)ccc2Cl)N2CCC(F)(F)CC2C)s1` (centres unmarked) [Compound 113, 2-chloro-N-[2-(4,4-difluoro-2-methylpiperidin-1-yl)-2-(2-methyl-1,3-thiazol-5-yl)ethyl]-5-(5-fluoropyrimidin-2-yl)], for which the IC50 came to 743 nM. On to `Cc1ncsc1C(CNC(=O)c1c(F)cccc1Cl)N1CCCC(F)(F)C1` (centres unmarked) [Compound 64, 2-chloro-N-[2-(3,3-difluoropiperidin-1-yl)-2-(4-methyl-1,3-thiazol-5-yl)ethyl]-6-fluorobenzamide], for which the 50% inhibitory concentration (IC50) amounted to 253 nM. For `Cc1ncsc1C(CNC(=O)c1cc(-c2ncc(F)cn2)ccc1Cl)N1CCC(Oc2ccccc2)CC1` (centres unmarked) [Compound 73, 2-chloro-5-(5-fluoropyrimidin-2-yl)-N-[2-(4-methyl-1,3-thiazol-5-yl)-2-(4-phenoxypiperidin-1-yl)ethyl]benzamide], the IC50 was 238 nM. For `Cc1ncsc1C(CNC(=O)c1cc(-c2ncc(F)cn2)ccc1Cl)N1CC(F)(F)C1` (centres unmarked) [Compound 65, 2-chloro-N-[2-(3,3-difluoroazetidin-1-yl)-2-(4-methyl-1,3-thiazol-5-yl)ethyl]-5-(5-fluoropyrimidin-2-yl)benzamide] the value was 39 nM; for `Cc1ncc(C(CNC(=O)c2cc(-c3ncc(F)cn3)ccc2F)N2CCC(F)(F)CC2)s1` (centres unmarked) [Compound 80, N-[2-(4,4-difluoropiperidin-1-yl)-2-(2-methyl-1,3-thiazol-5-yl)ethyl]-2-fluoro-5-(5-fluoropyrimidin-2-yl)benzamide], 292 nM. Then `O=C(NCC(c1cnc(C2CCC(F)(F)CC2)s1)N1CCC(F)(F)CC1)c1c(F)cccc1Cl` (centres unmarked) [Compound 117, 2-chloro-N-{2-[2-(4,4-difluorocyclohexyl)-1,3-thiazol-5-yl]-2-(4,4-difluoropiperidin-1-yl)ethyl}-6-fluorobenzamide], with 429 nM.
